# Measured values reported in patent publication US20230131899A1, “INHIBITORS OF MICROBIALLY INDUCED AMYLOID” (Axial Therapeutics, Inc., priority 2020, published 2023).
# Where two headings read alike, the source gives them in different places.
# Molecular target: T1, human α-synuclein (Homo sapiens, UniProt P37840)
# T1 construct: the full-length gene for untagged human α-synuclein was inserted; made in house; host or cells: E. coli BL21(DE3), plasmid derived from pT7 or pET11a
# Test: Cell-free Thioflavin T assay of α-synuclein aggregation (αSyn ThT Assay)
# Assay type: biochemical
# Settings: αSyn 50 μM
# Summary of the method: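 Inhibition is reported as 100% minus background-corrected ThT signal relative to vehicle wells, taken at 36, 47, 48 or 72 h or the last read. Reactions held 50 μM recombinant α-synuclein, 20-100 μM compound, 20-40 μM ThT and 1% DMSO. Incubation was at 37° C., shaken, with a glass bead.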
# [1] = mean % inhibition of αSyn aggregation relative to DMSO control, compounds at 100 μM, read-out: αSyn ThT Assay % Inhibition
# [2] = compounds at 100 μM, class symbol, read-out: αSyn ThT Assay % Inhibition (activity range)
# [3] = class symbol, compounds 100 μM, read-out: αSyn ThT Assay % inhibition, activity range
# [4] = mean percent inhibition relative to DMSO control, compounds 100 μM, read-out: αSyn ThT Assay % inhibition
SMILES,inhibition at 100 µM [1] [%],inhibition at 100 µM [2] [%],inhibition at 100 µM [3] [%],inhibition at 100 µM [4] [%]
"CC1(C)Sc2c(-c3cccc(C(F)(F)F)c3)c(Cc3cccc4ccccc34)nc(=O)n2C1C(=O)O (centres unmarked) [Compound 059, 2,2-dimethyl-7-(naphthalen-1-ylmethyl)-5-oxo-8-(3-(trifluoromethyl)phenyl)-2,3-dihydro-5H-thiazolo[3,2-c]pyrimidine-3-carboxylic acid]",36,31 to 60,–,–
"O=C(O)C1CN(Cc2ccc(CO)cc2)c2c(-c3cccc(C(F)(F)F)c3)c(Cc3cccc4ccccc34)c(Cl)c(=O)n21 (centres unmarked) [Compound 170, 6-chloro-1-(4-(hydroxymethyl)benzyl)-7-(naphthalen-1-ylmethyl)-5-oxo-8-(3-(trifluoromethyl)phenyl)-1,2,3,5-tetrahydroimidazo[1,2-a]pyridine-3-carboxylic acid]",–,–,11 to 30,30
"O=C(O)C1CN(Cc2ccccc2)c2c(-c3cccc(Br)c3)c(Cc3cccc4ccccc34)c(Cl)c(=O)n21 (centres unmarked) [Compound 198, 1-benzyl-8-(3-bromophenyl)-6-chloro-7-(naphthalen-1-ylmethyl)-5-oxo-1,2,3,5-tetrahydroimidazo[1,2-a]pyridine-3-carboxylic acid]",–,–,> 60,75
"O=C(O)C1n2c(c(-c3cccc(C(F)(F)F)c3)c(Cc3cccc4ccccc34)nc2=O)SC12CCCC2 (centres unmarked) [Compound 053, 7′-(naphthalen-1-ylmethyl)-5′-oxo-8′-(3-(trifluoromethyl)phenyl)-3′H,5′H-spiro[cyclopentane-1,2′-thiazolo[3,2-c]pyrimidine]-3′-carboxylic acid]",65,> 60,–,–
